# According to patent US20260184691A1, “INHIBITORS AND DEGRADERS OF PIP4K PROTEIN” (Larkspur Biosciences, Inc., priority 2022, published 2026):
# Target: T1, Human PIP4K2C (Homo sapiens, UniProt Q8TBX8)
# T1 construct: purchased Eurofins DiscoverX 87-0007-1094
# T1 sequence (Q8TBX8 1-421): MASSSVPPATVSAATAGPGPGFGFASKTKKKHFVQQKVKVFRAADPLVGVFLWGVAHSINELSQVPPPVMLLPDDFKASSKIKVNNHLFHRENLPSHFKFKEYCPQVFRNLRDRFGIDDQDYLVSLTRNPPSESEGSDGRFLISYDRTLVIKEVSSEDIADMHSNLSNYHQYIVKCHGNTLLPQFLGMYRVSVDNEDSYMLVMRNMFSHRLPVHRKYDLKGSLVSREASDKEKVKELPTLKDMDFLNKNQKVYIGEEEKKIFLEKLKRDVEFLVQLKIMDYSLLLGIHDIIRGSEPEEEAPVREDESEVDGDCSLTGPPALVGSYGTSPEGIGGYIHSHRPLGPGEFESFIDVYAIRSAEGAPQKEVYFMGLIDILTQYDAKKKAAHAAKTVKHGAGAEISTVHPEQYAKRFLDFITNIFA
# Experiment: Enzyme binding assay (KINOMEscan), active site-directed competition binding
# Conditions: 11-point dose response, duplicate, top concentration 5 micromolar; read-out: Pip4k2c Kd: IC50
# Description: PIP4K2C binding constants disclosed herein were determined using the proprietary Human PIP4K2C binding assay (Catalog number 87-0007-1094, Eurofins DiscoverX, San Diego, CA). This assay measures active site-directed competition binding to an immobilized ligand (see https://doi.org/10.1038/nbt1068, herein incorporated by reference in its entirety). Experiments were conducted using an 11-point dose response curve, in duplicate, with a top starting concentration of 5 micromolar; the Levenberg-Marquardt algorithm was used to fit a Hill equation to dose-response data to calculate IC50 values (see Table 5).
row,SMILES,IC50
1,"O=C1CCCN1c1cncc(Nc2ncc(Cl)c(C3CCCN(C4CCC4)C3)n2)c1 (stereo not shown) [Compound 145, 1-(5-((5-chloro-4-(1-cyclobutylpiperidin-3-yl)pyrimidin-2-yl)amino)pyridin-3-yl)pyrrolidin-2-one]",< 0.5 µM
2,"O=C1CCCN1c1cncc(Nc2ncc(Cl)c(-c3cccc(C4CCCNC4)c3)n2)c1 (stereo not shown) [Compound 30, 1-(5-((5-chloro-4-(3-(piperidin-3-yl)phenyl)pyrimidin-2-yl)amino)pyridin-3-yl)pyrrolidin-2-one]",< 0.5 µM
3,O=C1CCCN1c1cncc(Nc2ncc(Cl)c(N3CCCC(O)C3)n2)c1 (stereo not shown) [Compound 99],< 0.5 µM
4,"O=C1CCCN1c1cncc(Nc2ncc(Cl)c(-c3cccc(-c4ccccc4Cl)c3)n2)c1 [Compound 14, 1-(5-((5-chloro-4-(2′-chloro-[1,1′-biphenyl]-3-yl)pyrimidin-2-yl)amino)pyridin-3-yl)pyrrolidin-2-one]",< 0.5 µM
5,"O=C(c1ccc(F)cc1)N1CCC(c2nc(Nc3cncc(N4CCCC4=O)c3)ncc2Cl)C1 (stereo not shown) [Compound 159, 1-(5-((5-chloro-4-(1-(4-fluorobenzoyl)pyrrolidin-3-yl)pyrimidin-2-yl)amino)pyridin-3-yl)pyrrolidin-2-one]",< 0.5 µM
6,"O=C(c1cccc(=O)[nH]1)N1CCCC(c2nc(Nc3cncc(N4CCCC4=O)c3)ncc2Cl)C1 (stereo not shown) [Compound 161, 6-(3-(5-chloro-2-((5-(2-oxopyrrolidin-1-yl)pyridin-3-yl)amino)pyrimidin-4-yl)piperidine-1-carbonyl)pyridin-2(1H)-one]",< 0.5 µM
7,"O=C1CCCN1c1cncc(Nc2ncc(F)c(-c3ccc(=O)n(CC4CC4)c3)n2)c1 [Compound 158, 1-(cyclopropylmethyl)-5-(5-fluoro-2-((5-(2-oxopyrrolidin-1-yl)pyridin-3-yl)amino)pyrimidin-4-yl)pyridin-2(1H)-one]",< 0.5 µM
8,"O=C1CCCN1c1cncc(Nc2ncc(Cl)c(-c3cnn(C4CCC4)c3)n2)c1 [Compound 137, 1-(5-((5-chloro-4-(1-cyclobutyl-1H-pyrazol-4-yl)pyrimidin-2-yl)amino)pyridin-3-yl)pyrrolidin-2-one]",< 0.5 µM
9,"CC1CC(C)CN(c2nc(Nc3cncc(N4CCCC4=O)c3)ncc2Cl)C1 (stereo not shown) [Compound 115, 1-(5-((5-chloro-4-(3,5-dimethylpiperidin-1-yl)pyrimidin-2-yl)amino)pyridin-3-yl)pyrrolidin-2-one]",< 0.5 µM
10,"CC(=O)N1CCC2(CC1)CCN(c1cncc(Nc3ncc(Cl)c(-c4cccc(-c5ccccc5)c4)n3)c1)C2=O [Compound 133, 8-acetyl-2-[5-[[5-chloro-4-(3-phenylphenyl)pyrimidin-2-yl]amino]-3-pyridyl]-2,8-diazaspiro[4.5]decan-1-one]",< 0.5 µM
11,"O=C1CCCN1c1cncc(Nc2ncc(Cl)c(-c3ccc(F)cc3F)n2)c1 [Compound 108, 1-(5-((5-chloro-4-(2,4-difluorophenyl)pyrimidin-2-yl)amino)pyridin-3-yl)pyrrolidin-2-one]",< 0.5 µM
12,"CC(C)c1cccc(-c2nc(Nc3cncc(N4CCCC4=O)c3)ncc2Cl)c1 [Compound 98, 1-(5-((5-chloro-4-(3-isopropylphenyl)pyrimidin-2-yl)amino)pyridin-3-yl)pyrrolidin-2-one]",< 0.5 µM
13,"O=C1CCCN1c1cncc(Nc2ncc(Cl)c(N3CCCC(c4ccccc4)C3)n2)c1 (stereo not shown) [Compound 24, 1-(5-((5-chloro-4-(3-phenylpiperidin-1-yl)pyrimidin-2-yl)amino)pyridin-3-yl)pyrrolidin-2-one]",< 0.5 µM
14,"CN1CCC2(CC1)CCN(c1cncc(Nc3ncc(Cl)c(-c4cccc(-c5ccccc5)c4)n3)c1)C2=O [Compound 132, 2-[5-[[5-chloro-4-(3-phenylphenyl)pyrimidin-2-yl]amino]-3-pyridyl]-8-methyl-2,8-diazaspiro[4.5]decan-1-one]",< 0.5 µM
15,"O=C1CCCN1c1cncc(Nc2ncc(Cl)c(-c3cc(-c4ccccc4)ccc3Cl)n2)c1 [Compound 20, 1-(5-((5-chloro-4-(4-chloro-[1,1′-biphenyl]-3-yl)pyrimidin-2-yl)amino)pyridin-3-yl)pyrrolidin-2-one]",< 0.5 µM
16,"O=C1CCCN1c1cncc(Nc2ncc(Cl)c(-c3ccc(Cl)c(-c4ccccc4)c3)n2)c1 [Compound 6, 1-(5-((5-chloro-4-(6-chloro-[1,1′-biphenyl]-3-yl)pyrimidin-2-yl)amino)pyridin-3-yl)pyrrolidin-2-one]",< 0.5 µM
17,"CC(=O)N1CC2(CC(=O)N(c3cncc(Nc4ncc(Cl)c(-c5cccc(-c6ccccc6)c5)n4)c3)C2)C1 [Compound 36, 6-(5-((4-([1,1′-biphenyl]-3-yl)-5-chloropyrimidin-2-yl)amino)pyridin-3-yl)-2-acetyl-2,6-diazaspiro[3.4]octan-7-one]",< 0.5 µM

row,SMILES,IC50
1,"CCCCC(=O)NC1CCCN(c2nc(Nc3cncc(N4CCCC4=O)c3)ncc2Cl)C1 (stereo not shown) [Compound 110, N-(1-(5-chloro-2-((5-(2-oxopyrrolidin-1-yl)pyridin-3-yl)amino)pyrimidin-4-yl)piperidin-3-yl)pentanamide]",< 0.5 µM
2,"O=C1CCCN1c1cncc(Nc2ncc(Cl)c(N3CCC(C4CCCCC4)C3)n2)c1 (stereo not shown) [Compound 45, 1-(5-((5-chloro-4-(3-cyclohexylpyrrolidin-1-yl)pyrimidin-2-yl)amino)pyridin-3-yl)pyrrolidin-2-one]",0.5 to 1 µM
3,"O=C1CCCN1c1cncc(Nc2ncc(Cl)c(-c3ccc(Cl)cc3)n2)c1 [Compound 93, 1-(5-((5-chloro-4-(4-chlorophenyl)pyrimidin-2-yl)amino)pyridin-3-yl)pyrrolidin-2-one]",< 0.5 µM
4,"Cc1ccc(-c2nc(Nc3cncc(N4CCCC4=O)c3)ncc2Cl)cc1-c1ccccc1 [Compound 7, 1-(5-((5-chloro-4-(6-methyl-[1,1′-biphenyl]-3-yl)pyrimidin-2-yl)amino)pyridin-3-yl)pyrrolidin-2-one]",< 0.5 µM
5,"O=C1CCCN1c1cncc(Nc2ncc(Cl)c(N3CCCC(C(F)(F)F)C3)n2)c1 (stereo not shown) [Compound 101, 1-(5-((5-chloro-4-(3-(trifluoromethyl)piperidin-1-yl)pyrimidin-2-yl)amino)pyridin-3-yl)pyrrolidin-2-one]",< 0.5 µM
6,"O=C1CCCN1c1cncc(Nc2ncc(Cl)c(N3CCC[C@H](c4ccccn4)C3)n2)c1 (single isomer, unassigned) [Compound 125]",< 0.5 µM
7,"O=C1CCCN1c1cncc(Nc2ncc(Cl)c(-c3cccc(-c4cccnc4)c3)n2)c1 [Compound 16, 1-(5-((5-chloro-4-(3-(pyridin-3-yl)phenyl)pyrimidin-2-yl)amino)pyridin-3-yl)pyrrolidin-2-one]",< 0.5 µM
8,"O=C1CCCN1c1cncc(Nc2ncc(Cl)c(N3CCCCC3C(F)(F)F)n2)c1 (stereo not shown) [Compound 119, 1-(5-((5-chloro-4-(2-(trifluoromethyl)piperidin-1-yl)pyrimidin-2-yl)amino)pyridin-3-yl)pyrrolidin-2-one]",< 0.5 µM
9,"O=C(C1CCCC1)N1CCCC(c2nc(Nc3cncc(N4CCCC4=O)c3)ncc2Cl)C1 (stereo not shown) [Compound 146, 1-(5-((5-chloro-4-(1-(cyclopentanecarbonyl)piperidin-3-yl)pyrimidin-2-yl)amino)pyridin-3-yl)pyrrolidin-2-one]",< 0.5 µM
10,"O=C1CCCN1c1cncc(Nc2ncc(Cl)c(-c3ccc(F)cc3Cl)n2)c1 [Compound 112, 1-(5-((5-chloro-4-(2-chloro-4-fluorophenyl)pyrimidin-2-yl)amino)pyridin-3-yl)pyrrolidin-2-one]",< 0.5 µM
11,"O=C1CCCN1c1cncc(Nc2ncc(Cl)c(-c3ccccc3Cl)n2)c1 [Compound 95, 1-(5-((5-chloro-4-(2-chlorophenyl)pyrimidin-2-yl)amino)pyridin-3-yl)pyrrolidin-2-one]",< 0.5 µM
12,"O=C1CCCN1c1cncc(Nc2ncc(Cl)c(C3CCCN(C4CC4)C3)n2)c1 (stereo not shown) [Compound 149, 1-(5-((5-chloro-4-(1-cyclopropylpiperidin-3-yl)pyrimidin-2-yl)amino)pyridin-3-yl)pyrrolidin-2-one]",< 0.5 µM
13,"O=C1N(c2cncc(Nc3ncc(Cl)c(-c4cccc(-c5ccccc5)c4)n3)c2)CCC12CCNCC2 [Compound 1, 2-(5-((4-([1,1′-biphenyl]-3-yl)-5-chloropyrimidin-2-yl)amino)pyridin-3-yl)-2,8-diazaspiro[4.5]decan-1-one]",< 0.5 µM
14,"O=C1CCCN1c1ccnc(Nc2ncc(Cl)c(-c3cccc(C4CCCCC4)c3)n2)c1 [Compound 150, 1-(2-((5-chloro-4-(3-cyclohexylphenyl)pyrimidin-2-yl)amino)pyridin-4-yl)pyrrolidin-2-one]",0.5 to 1 µM
15,"O=C1CCCN1c1cncc(Nc2ncc(Cl)c(N3CCC(c4ccccn4)C3)n2)c1 (stereo not shown) [Compound 120, 1-(5-((5-chloro-4-(3-(pyridin-2-yl)pyrrolidin-1-yl)pyrimidin-2-yl)amino)pyridin-3-yl)pyrrolidin-2-one]",< 0.5 µM
16,"Cc1cc(-c2ccccc2)cc(-c2nc(Nc3cncc(N4CCCC4=O)c3)ncc2Cl)c1 [Compound 11, 1-(5-((5-chloro-4-(5-methyl-[1,1′-biphenyl]-3-yl)pyrimidin-2-yl)amino)pyridin-3-yl)pyrrolidin-2-one]",< 0.5 µM
17,"O=C1CCCN1c1cncc(Nc2cc(-c3ccccc3)c(Cl)cn2)c1 [Compound 117, 1-(5-((5-chloro-4-phenylpyridin-2-yl)amino)pyridin-3-yl)pyrrolidin-2-one]",< 0.5 µM
